28 compounds from ChEMBL document CHEMBL4261511, “Synthesis, structure-activity relationship and binding mode analysis of 4-thiazolidinone derivatives as novel inhibitors of human dihydroorotate dehydrogenase” (Medchemcomm, 2017) can be followed below.

The target in assay [1] is T1, Dihydroorotate dehydrogenase (quinone), mitochondrial (Homo sapiens, UniProt Q02127). As to the kind of experiment: Inhibition of human DHODH at 10 uM using dihydroorotate substrate by DCIP assay relative to control.
T1 sequence (Q02127 whole entry): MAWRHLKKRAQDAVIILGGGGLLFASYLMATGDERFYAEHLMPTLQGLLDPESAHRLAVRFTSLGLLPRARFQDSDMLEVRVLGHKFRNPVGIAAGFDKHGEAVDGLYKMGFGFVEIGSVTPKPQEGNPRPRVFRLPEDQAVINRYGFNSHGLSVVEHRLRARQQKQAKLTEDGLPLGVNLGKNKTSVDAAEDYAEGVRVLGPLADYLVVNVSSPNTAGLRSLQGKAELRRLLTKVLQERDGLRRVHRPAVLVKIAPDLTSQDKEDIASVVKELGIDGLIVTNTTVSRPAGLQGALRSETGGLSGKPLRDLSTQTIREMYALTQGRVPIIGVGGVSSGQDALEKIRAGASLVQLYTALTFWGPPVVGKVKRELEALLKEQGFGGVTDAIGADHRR
For assay [2], the target named is T1, Dihydroorotate dehydrogenase (quinone), mitochondrial. Nature of the assay: Inhibition of human DHODH using dihydroorotate substrate by DCIP assay.

As usually defined, the inhibition is the drop in the measured response relative to a control, in per cent. Low values mean a response near the control, high ones a response far below the control. A word on the IC50: it is the concentration needed to halve the response being measured. In assay [1], `COC(=O)/C(C#N)=C1\SCC(=O)N1c1cccc2ccccc12` came in with an inhibition of 21.9%. Besides, in assay [2], the half-maximal inhibitory concentration (IC50) is more than 10 µM.

For `COC(=O)/C(C#N)=C1\SCCC(=O)N1c1ccccc1F`, in assay [1], the inhibition came to 15.7%. The IC50 in assay [2] is more than 10 µM. In turn, `COC(=O)/C(C#N)=C1\SCC(=O)N1c1ccc(Br)cc1` had an inhibition in assay [1] of 69%. This compound displayed a 50% inhibitory concentration (IC50) in assay [2] of 2.68 µM. On the same counts, the results for `CCOC(=O)/C(C#N)=C1\SCC(=O)N1c1ccccc1F` are 38.2% and more than 10 µM. `COC(=O)/C(C#N)=C1\SCC(=O)N1c1ccc2ccccc2c1` came in with an inhibition in assay [1] of 80.3%.

`CCOC(=O)C(C(=O)OCC)=C1SCC(=O)N1c1ccccc1F`: the inhibition in assay [1] stood at 8.71%. In assay [2], this compound came in with an IC50 of more than 10 µM. For `COC(=O)/C(C#N)=C1\SCC(=O)N1c1ccc(C(=O)O)cc1`, the inhibition in assay [1] amounted to 15.1%. Moreover, the 50% inhibitory concentration (IC50) in assay [2] was more than 10 µM. In turn, `COC(=O)/C(C#N)=C1\SCC(=O)N1c1ccccc1I` came in with an inhibition in assay [1] of 18.4%. This compound returned an IC50 in assay [2] of more than 10 µM. The compound `CC(C)(C)OC(=O)/C(C#N)=C1\SCC(=O)N1c1ccccc1F` registered an inhibition in assay [1] of 33.9%. This compound also had a half-inhibitory concentration (IC50) in assay [2] of more than 10 µM. In assay [1], `CCCCOC(=O)/C(C#N)=C1\SCC(=O)N1c1ccccc1F` gave an inhibition of 28.8%. This compound returned a concentration for half-maximal inhibition (IC50) in assay [2] of more than 10 µM. Regarding `COC(=O)/C(C#N)=C1\SCC(=O)N1c1ccc(C(F)(F)F)cc1`, the inhibition in assay [1] is 74.4%. Also, in assay [2], the IC50 turned out to be 3.03 µM. In assay [1], `N#C/C(C(N)=O)=C1/SCC(=O)N1c1ccccc1F` had an inhibition of 11.8%. In assay [2], this compound displayed an IC50 of more than 10 µM. Turning to `COC(=O)/C(C#N)=C1\SCC(=O)N1c1ccccc1Cl`, the inhibition in assay [1] worked out at 40%. The compound further gave an IC50 in assay [2] of more than 10 µM.

`N#C/C(C(=O)O)=C1/SCC(=O)N1c1ccccc1F`: in assay [1], the inhibition was found to be 14.9%. The IC50 in assay [2] is more than 10 µM.

Regarding `COC(=O)/C(C#N)=C1\SCC(=O)N1c1cccc(Cl)c1`, the inhibition in assay [1] turned out to be 56.9%. The compound further yielded a half-maximal inhibitory concentration (IC50) in assay [2] of 8.51 µM.

In assay [1], `COC(=O)/C(C#N)=C1\SCC(=O)N1c1ccccc1F` displayed an inhibition of 34.9%. The same compound yielded an IC50 in assay [2] of more than 10 µM. The matching figures for `COC(=O)/C(C#N)=C1\SCC(=O)N1c1cccc(F)c1`: 34.1% and more than 10 µM.

Turning to `COC(=O)/C(C#N)=C1\SCC(=O)N1c1ccc([N+](=O)[O-])cc1`, the inhibition in assay [1] was found to be 62.9%. This compound also registered an IC50 in assay [2] of 4.41 µM. On the same counts, the results for `O=C1CSC(=S)N1c1ccc(C(F)(F)F)cc1` are 25.6% and more than 10 µM. For the compound `CCCOC(=O)/C(C#N)=C1\SCC(=O)N1c1ccccc1F`, in assay [1], the inhibition was 33.5%. The compound further had an IC50 in assay [2] of more than 10 µM. `COC(=O)/C(C#N)=C1\SCCN1c1ccccc1F` came in with an inhibition in assay [1] of 11.1%. Moreover, the IC50 in assay [2] was more than 10 µM. In assay [1], `COC(=O)/C(C#N)=C1\SCC(=O)N1c1ccc(C(C)(C)C)cc1` returned an inhibition of 79.1%.

Regarding `COC(=O)/C(C#N)=C1\SCC(=O)N1c1cccc(Cl)n1`, the inhibition in assay [1] came to 43.7%. The IC50 in assay [2] was more than 10 µM. As for `COC(=O)/C(C#N)=C1\SCC(=O)N1c1ccc(F)cc1`, the inhibition in assay [1] is 49.4%. Moreover, half-maximal inhibition in assay [2] (IC50) was put at 10.6 µM.

In the case of `COC(=O)/C(C#N)=C1\SCC(=O)N1c1ccnc(Cl)c1`, the inhibition in assay [1] was 45.4%. The same compound had a half-inhibitory concentration (IC50) in assay [2] of more than 10 µM. `COC(=O)/C(C#N)=C1\SCC(=O)N1c1ccc(OC)cc1` showed an inhibition in assay [1] of 52.5%. This compound also gave an IC50 in assay [2] of 9.45 µM. The compound `COC(=O)C(C(=O)OC)=C1SCC(=O)N1c1ccccc1F` returned an inhibition in assay [1] of 4.27%. For the same compound, the half-inhibitory concentration (IC50) in assay [2] was more than 10 µM. The matching figures for `COC(=O)/C(C#N)=C1\SCC(=O)N1c1ccc(OC)cc1F`: 40.4% and more than 10 µM.
